Laboratory results: patent US12577273B2, “Small molecule modulators of gut bacterial bile acid metabolism” (priority 2019, dated 2026)
Read-outs that look alike come from different tables or passages of the source.

Columns and labels:
[1] = test system: three Gram negative and three Gram positive strains of human gut bacteria; assay: BSH inhibition in growing cultures of six gut bacterial strains (overall statements); format: cell-based; conditions: 100 μM inhibitor, 100 μM conjugated bile acid mixture
[2] = test system: B. theta; assay: Determination of IC50 of compound 7 in B. theta cultures

C[C@H](CCC(=O)CF)[C@H]1CC[C@H]2[C@@H]3[C@H](O)C[C@@H]4C[C@H](O)CC[C@]4(C)[C@H]3CC[C@]12C [Compound 7]
deconjugation / BSH inhibition in cultures of the six bacterial strains (in words) [1]: almost no deconjugation
deconjugation / BSH inhibition in cultures of the six bacterial strains (in words) ([1]; listed as compound 7): almost no detectable deconjugation
IC50 ([2]; Bacteroides thetaiotaomicron, 48 h, read-out: IC50 against B. theta (growing culture), 100 μM TUDCA, 48 h anaerobic growth): 913 nM
IC50 ([2]; read-out: IC50 against B. theta (growing culture), 100 μM TUDCA, 48 h anaerobic growth): 1070 nM
